# Source: patent publication US20100330126A1, “Attenuated malaria blood-stage vaccine” (priority 2009, published 2010)
# T1: P. falciparum PNP (Plasmodium falciparum, UniProt Q8I3X4)
# T1 sequence (Q8I3X4 1-245): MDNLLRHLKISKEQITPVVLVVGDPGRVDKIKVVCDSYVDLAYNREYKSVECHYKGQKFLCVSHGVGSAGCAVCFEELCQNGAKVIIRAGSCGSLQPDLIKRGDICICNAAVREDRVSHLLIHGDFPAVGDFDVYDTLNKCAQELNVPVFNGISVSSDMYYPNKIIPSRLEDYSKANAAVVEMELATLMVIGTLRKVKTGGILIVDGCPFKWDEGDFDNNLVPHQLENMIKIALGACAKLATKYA
# Experiments:
# Assay type in all cases: biochemical
# [1] = tested on: P. yoelii PNP; experiment: Phosphorylase activity assay, kinetic constants of recombinant PyPNP; conditions: for Km / kcat: substrate of P. yoelii PNP, 50 mM KPO4, pH 7.4
# Excerpt: Expression, Purification, and Characterization of PyPNP. Recombinant PyPNP was expressed with a C-terminal 6×His tag and the c-myc epitope and purified from induced bacterial culture by nickel affinity chromatography under native conditions. Like PfPNP, recombinant PyPNP elutes from gel filtration chromatography as a single peak consisting of homohexameric protein (≈180 kDa; data not shown). On a denatured SDS-PAGE gel, the protein ran as a single band with a molecular mass of 29.94 kDa. […] The catalytic efficiencies (kcat/Km) of PyPNP for these substrates were very similar to those observed in PfPNP (Table 2).
# Cloning and Expression of P. yoelii PNP. PyPNP was identified as a protein of 244 amino acids and 26.943 kDa by protein sequence homology to PfPNP (gene PY04622; PlasmoDB.org). The PyPNP open reading frame (ORF) sequence was amplified by PCR from genomic DNA of P. yoelii strain YM with primers PyPNP-F (5′-[…]-3′) (SEQ ID NO:8) and PyPNP-R (5′-[…]-3′) (SEQ ID NO:9). The 729 by PCR product was ligated into a pTrcHis2-TOPO vector (Invitrogen) and expressed in E. coli strain TOP 10. Recombinant PyPNP with a C-terminal 6×His tag and the c-myc epitope was induced with 1 mM IPTG at 37° C. for 10 h and purified by nickel chromatography. The purified PyPNP was >95% homogeneous based on denaturing polyacrylamide gel electrophoresis and staining with Coomassie blue. Protein concentration was measured by Bradford protein assay (Bio-Rad).
# (§1) Enzymatic Assays and Determination of Kinetic Constants. All phosphorylase activity assays were performed with purified enzyme in 50 mM KPO4, pH 7.4 as described^1. Briefly, phosphorylysis of inosine, 2′-deoxyinosine, and 5′-methylthioinosine was measured in a coupled assay with 115 milliunits/ml xanthine oxidase to convert hypoxanthine into uric acid. Uric acid formation was followed by spectrophotometric measurement at 293 nm (E293=12.9 mM^−1 cm^−1). Phosphorylysis of guanosine to guanine was monitored by measuring the disappearance of guanosine at 258 nm (E258=5.2 mM^−1 cm^−1). Adenosine and 5′-methylthioadenosine phosphorylase activities were measured by following the disappearance of the substrate at 265 nm (E256=1.9 mM^−1 cm^−1). Uridine phosphorylase activity was measured by following the conversion of uridine to uracil at 272 nm (E260=2.9 mM^−1 cm^−1). The Michaelis constant Km was determined as the substrate concentration at ½ the maximum velocity. The kcat was determined for each substrate by fits of substrate saturation data to the Michaelis-Menten equation. Values for kcat assume one catalytic site per subunit and are expressed as moles of product per second per mole of subunit.
# [2] = molecular target: T1, P. falciparum PNP; experiment: Phosphorylase activity assay, kinetic constants of PfPNP; conditions: substrate of P. falciparum PNP
# Experimental: as §1
# [3] = substrate: OC[C@H]1O[C@@H](n2cnc3c(O)ncnc32)[C@H](O)[C@@H]1O; experiment: as above; conditions: other: substrate of P. falciparum PNP; pH 7.4
# Experimental: as §1
# [4] = substrate: Nc1nc2c(ncn2[C@@H]2O[C@H](CO)[C@@H](O)[C@H]2O)c(=O)[nH]1; experiment: as above; conditions: other: substrate of P. falciparum PNP; pH 7.4
# Experimental: as §1
# [5] = substrate: OC[C@H]1O[C@@H](n2cnc3c(O)ncnc32)C[C@@H]1O; experiment: as above; conditions: other: substrate of P. falciparum PNP; pH 7.4
# Experimental: as §1
molecule,measurement,setting,value
OC[C@H]1O[C@@H](n2cnc3c(O)ncnc32)C[C@@H]1O [2′-deoxyinosine],Km,[1],79 ± 10 µM
same,kcat,[1],1.2 ± 0.1 s⁻¹
Nc1nc2c(ncn2[C@@H]2O[C@H](CO)[C@@H](O)[C@H]2O)c(=O)[nH]1 [Guanosine],Km,[1],8.9 ± 1.6 µM
same,kcat,[1],3.8 ± 0.2 s⁻¹
OC[C@H]1O[C@@H](n2cnc3c(O)ncnc32)[C@H](O)[C@@H]1O [Inosine],Km,[1],8.6 ± 1.5 µM
same,kcat,[1],3.5 ± 0.1 s⁻¹
CSc1ncnc2c1ncn2[C@@H]1O[C@H](CO)[C@@H](O)[C@H]1O [Methylthioinosine],Km,[1],5 ± 0.4 µM
same,kcat,[1],3.4 ± 0.1 s⁻¹
same,Km,[2],10.8 ± 0.9 µM
same,kcat,[2],2.6 ± 0.8 s⁻¹
O=c1ccn([C@@H]2O[C@H](CO)[C@@H](O)[C@H]2O)c(=O)[nH]1 [uridine],PyPNP activity with substrate,[1]; data not shown,no detectable activity
P. falciparum PNP (Plasmodium falciparum 3D7) (protein) MDNLLRHLKISKEQITPVVLVVGDPGRVDKIKVVCDSYVDLAYNREYKSVECHYKGQKFLCVSHGVGSAGCAVCFEELCQNGAKVIIRAGSCGSLQPDLIKRGDICICNAAVREDRVSHLLIHGDFPAVGDFDVYDTLNKCAQELNVPVFNGISVSSDMYYPNKIIPSRLEDYSKANAAVVEMELATLMVIGTLRKVKTGGILIVDGCPFKWDEGDFDNNLVPHQLENMIKIALGACAKLATKYA,Km,[3],4.7 ± 0.9 µM
same,kcat,[3],1.1 ± 0.2 s⁻¹
same,kcat/Km,[3],230000 M⁻¹ s⁻¹
same,Km,[4],9.4 ± 1.2 µM
same,kcat,[4],2.6 ± 0.5 s⁻¹
same,kcat/Km,[4],280000 M⁻¹ s⁻¹
same,Km,[5],91 ± 35 µM
same,kcat,[5],0.9 ± 0.3 s⁻¹
same,kcat/Km,[5],9800 M⁻¹ s⁻¹
